Data taken from article PMC5733478, “A Non-imaging High Throughput Approach to Chemical Library Screening at the Unmodified Adenosine-A3 Receptor in Living Cells” (Frontiers in Pharmacology, 2017).
Where a name gives a salt, the structure may show the parent alone.

Target: T1, human A3AR (Homo sapiens, UniProt P0DMS8)
T1 construct: expressed in transfected cells
T1 sequence (P0DMS8 1-318): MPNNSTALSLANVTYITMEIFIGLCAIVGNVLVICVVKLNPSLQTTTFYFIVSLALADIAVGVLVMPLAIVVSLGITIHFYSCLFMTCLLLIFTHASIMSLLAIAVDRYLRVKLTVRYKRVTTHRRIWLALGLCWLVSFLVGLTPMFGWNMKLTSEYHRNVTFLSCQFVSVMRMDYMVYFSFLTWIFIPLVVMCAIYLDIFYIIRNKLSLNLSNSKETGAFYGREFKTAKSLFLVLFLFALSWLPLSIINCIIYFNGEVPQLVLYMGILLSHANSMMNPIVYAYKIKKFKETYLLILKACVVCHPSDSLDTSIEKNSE
Test: LOPAC library primary screen: single concentration (10 μM) inhibition of 25 nM CA200645 binding, PHERAstar FS
Details: not given

**Q.** For `COc1cc(/C=C(\C#N)C(=O)Nc2nnc(C(F)(F)F)s2)ccc1OCc1ccc(C(F)(F)F)cc1C(F)(F)F` [XCT790], which “% 25 nM CA200645 binding” value is on record?
**A.** The value was 87.7 ± 9.0%.

**Q.** Which “% 25 nM CA200645 binding” value does the source give for `Cc1cccc(C)c1N=C1NCCCS1` [Xylazine hydrochloride] here?
**A.** The value was 106.3 ± 5.8%.

**Q.** For `Cc1cc(C(C)(C)C)cc(C)c1CC1=NCCN1` [Xylometazoline hydrochloride], which “% 25 nM CA200645 binding” value is on record?
**A.** The value was 106.7 ± 10.4%.

**Q.** `C[C@@H](N)[C@H]1CC[C@H](C(=O)Nc2ccncc2)CC1.Cl.Cl` [Y-27632 dihydrochloride] was tested. Which “% 25 nM CA200645 binding” value did it give?
**A.** Its value is 98.6 ± 10.3%.

**Q.** How did the “% 25 nM CA200645 binding” value turn out when `CCc1ccc2c(-c3cccc(Cl)c3)nc(=O)n(CC)c2n1` [YM 976] was run?
**A.** The value was 93.5 ± 3.0%.

**Q.** `COC(=O)[C@@H]1[C@H]2C[C@H]3c4[nH]c5ccccc5c4CCN3C[C@@H]2CC[C@@H]1O` [Yohimbine hydrochloride] was tested. Which “% 25 nM CA200645 binding” value did it give?
**A.** The value was 100.6 ± 0.5%.

**Q.** `O=C(N[C@@H](Cc1ccccc1)C(=O)CCl)OCc1ccccc1` [Z-L-Phe chloromethyl ketone] was tested. Which “% 25 nM CA200645 binding” value did it give?
**A.** Its value is 100.8 ± 7.1%.

**Q.** With `CC(C)N(CCC(=O)c1ccc2ccccc2c1)Cc1ccccc1.Cl` [ZM 39923 hydrochloride] as the molecule, how does the “% 25 nM CA200645 binding” value read?
**A.** The value was 115.5 ± 23.0%.

**Q.** For `CN(C)C/C=C(/c1ccc(Br)cc1)c1cccnc1` [Zimelidine dihydrochloride], which “% 25 nM CA200645 binding” value is on record?
**A.** Its value is 92.5 ± 9.4%.

**Q.** `O=C1Cc2cc(CCN3CCN(c4nsc5ccccc45)CC3)c(Cl)cc2N1` [Ziprasidone hydrochloride monohydrate] was tested. Which “% 25 nM CA200645 binding” value did it give?
**A.** The value was 84.7 ± 3.4%.

**Q.** How did the “% 25 nM CA200645 binding” value turn out when `NS(=O)(=O)Cc1noc2ccccc12` [Zonisamide sodium] was run?
**A.** Its value is 98.6 ± 10.8%.

**Q.** For `O=c1nc2[nH]c3ccccc3nc-2c(=O)[nH]1` [alloxazine, reference compound], which “% 25 nM CA200645 binding” value is on record?
**A.** Its value is 89.0 ± 4.9%.

**Q.** How did the “% 25 nM CA200645 binding” value turn out when `N=C(N)NC(CCC(=O)O)C(=O)O` (stereo not drawn) [alpha-Guanidinoglutaric acid] was run?
**A.** The value was 76.4 ± 9.5%.

**Q.** How did the “% 25 nM CA200645 binding” value turn out when `CN1[C@@H](CC(=O)c2ccccc2)CCC[C@H]1C[C@H](O)c1ccccc1.Cl` [alpha-Lobeline hydrochloride] was run?
**A.** Its value is 90.3 ± 6.6%.

**Q.** Which “% 25 nM CA200645 binding” value does the source give for `CC(N)Cc1c[nH]c2ccc(O)cc12.O=C(O)/C=C\C(=O)O` (stereo not drawn) [alpha-Methyl-5-hydroxytryptamine maleate] here?
**A.** The value was 115.5 ± 12.2%.

**Q.** For `C[C@]12CC[C@@H]3c4ccc(O)cc4CC[C@H]3[C@@H]1CC[C@@H]2O` [beta-Estradiol], which “% 25 nM CA200645 binding” value is on record?
**A.** Its value is 87.8 ± 13.4%.

**Q.** With `CC1(C)CCC2=C(O1)c1ccccc1C(=O)C2=O` [beta-Lapachone] as the molecule, how does the “% 25 nM CA200645 binding” value read?
**A.** Its value is 93.1 ± 5.0%.

**Q.** `Cn1c(=O)c2c(ncn2C)n(C)c1=O` [caffeine, reference compound] was tested. Which “% 25 nM CA200645 binding” value did it give?
**A.** The value was 95.8 ± 4.7%.

**Q.** With `NC/C=C\C(=O)O` [cis-4-Aminocrotonic acid] as the molecule, how does the “% 25 nM CA200645 binding” value read?
**A.** Its value is 103.0 ± 10.1%.

**Q.** Which “% 25 nM CA200645 binding” value does the source give for `OCCN1CCN(CC/C=C2/c3ccccc3Sc3ccc(C(F)(F)F)cc32)CC1` [cis-(Z)-Flupenthixol dihydrochloride] here?
**A.** Its value is 96.5 ± 4.1%.

**Q.** How did the “% 25 nM CA200645 binding” value turn out when `C#CC(N)CCC(=O)O` (centres unmarked) [gamma-Acetylinic GABA] was run?
**A.** Its value is 97.6 ± 3.0%.

Same assay, conditions: 10 μM compound, 25 nM CA200645, A3AR CHO cells

**Q.** `O=c1nc2[nH]c3ccccc3nc-2c(=O)[nH]1` [alloxazine, reference compound] was tested. Which “hit in LOPAC primary screen (inhibited the binding of CA200645 by >40%)” value did it give?
**A.** The value was “not identified as hits”.

**Q.** How did the “hit in LOPAC primary screen (inhibited the binding of CA200645 by >40%)” value turn out when `CCOC(=O)c1cnc2c(cnn2CC)c1NN=C(C)C` [etazolate hydrochloride, reference compound] was run?
**A.** The value was “identified”.

Same assay, conditions: % of control wells (1% DMSO and 25 nM CA200645); compounds at 10 µM; whole live cells expressing the A3AR; mean ± SD, three experiments in duplicate

**Q.** `CCOC(=O)c1cnc2c(cnn2CC)c1NN=C(C)C` [etazolate hydrochloride, reference compound] was tested. Which “% 25 nM CA200645 binding” value did it give?
**A.** Its value is 46.2 ± 5.3%.

Same assay, conditions: compounds tested at 10 µM; % of control wells (1% DMSO and 25 nM CA200645); whole live cells expressing the A3AR; mean ± SD, three experiments in duplicate

**Q.** How did the “% 25 nM CA200645 binding” value turn out when `CCCOc1ccccc1-c1nc2nn[nH]c2c(=O)[nH]1` [Zaprinast] was run?
**A.** Its value is 109.4 ± 6.4%.

**Q.** `Nc1ncnc2c1ncn2[C@@H]1O[C@H](CO)[C@@H](O)[C@H]1O` [adenosine] was tested. Which “% 25 nM CA200645 binding” value did it give?
**A.** The value was 92.3 ± 7.9%.
